Assay results reported in patent publication EP2592085B1, “Thiazolo[3,2-a][1,3]diazepine derivatives and pharmaceutical compositions containing the same as anticonvulsant agents and method for their preparation” (King Saud University, priority 2011, dated 2013).

Assays:
Swiss albino mice [1] = experiment: animal or person; format: in vivo; settings: for ED50: Mus musculus, ip, PTZ, median effective dose, log-probit method; for % Protection: PTZ 100 mg/kg i.p. given 30 min after compound i.p., dose SGH-35 200 mg/kg (0.78 mmol/kg), SGH-40 100 mg/kg (0.38 mmol/kg), 4 animals; for PI: male, Swiss albino, mouse, in vivo
Experimental: (§1) Adult male Swiss albino mice (22-28 g), approximately 10-week old, were used to conduct the anticonvulsant evaluation. They were housed in cages and kept at a temperature of 20 ± 2°C and a relative humidity of 55 ± 5% with a light-dark cycle of 12 h and fed with standard diet and water ad libitum. Compounds of the formula 1 have been dissolved in dimethylsulfoxide and administered at dose levels of 25, 50, 100 and 200 mgl/kg intraperitoneal (i.p.). Sodium valproate was freshly dissolved in 0.9 % NaCl and used at dose level of 200 mg/kg (1.38 mmol/kg) i.p., 30 min after the test compounds as a positive control. A control group of mice was included and received intraperitoneal (i.p.) injections of the test compounds' vehicle. […] Picrotoxin (pic) was freshly dissolved in 1 ml 0.1N warmed HCl and the final volume was made up with 0.9 % NaCl. It has been used at dose level of 10 mg/kg i.p. and was given 30 min after the test compounds.
(§2) The anticonvulsant activity of compounds of the formula 1 in mice was measured using Pentylenetetrazole (PTZ) seizure threshold test (White, H.S. et al. In Antiepileptic Drugs, 4th ed.; L,evy, R.H. et al., Eds, Raven: New York, 1995, pp 99-121). The active compounds of the formula 1 were further tested against maximal electroshock seizure (MES), and picrotoxin induced clonic convulsions, to explore the involvement of GABA-ergic receptors in their anticonvulsant activity. The effect of compounds of the formula 1 on motor performance was studied by chimney test (Dauge, V. et al. Neuropsychopharmacology 2001, 25, 690-98). Median effective (ED50), and median sedative (TD50) were calculated.
Pentylenetetrazole (PTZ) seizure threshold test is used to evaluate the potential anticonvulsant activity of compounds of the formula 1 (White, H.S. Et al. In Antiepileptic Drugs, 4th ed.; Levy, R.H. et al., Eds, Raven: New York, 1995, pp 99-121). Each compound was tested in 4 mice groups (Swiss albino mice, 25 g body weight) for each dose level (25, 50, 100 and 200 mg/kg) and was given i.p. 30 min later, animals were received PTZ (100 mg./kg, i.p.) and observed for 30 min. A single 5 seconds episode of clonic spasms was taken as a threshold seizure. SGH-35 and SGH-40 produced 100% protection against PTZ-induced seizures, Table 1. Table 1: ED50, TD50, PI, LD50 and TI for SGH-35 and SGH-40.
(§3) In each of the chemical and the electrical methods described above, Swiss albino mice were divided into 4 groups (N = 4 animals). Each group was injected (i.p.) with one of the four selected doses that have proven to obtain a variable percentage of protection […] before the convulsants. The effective dose 50 (ED50) i.e. the dose that protected half of the animals was then calculated using the log-probit method (White, H.S. et al. In Antiepileptic Drugs, 4th ed.; Levy, R.H.et al., Eds, Raven: New York, 1995, pp 99-121).

Swiss albino mice [2] = experiment: Maximal electroshock (MES) seizure test; format: in vivo; settings: for % Protection: MES applied 30 min after compound i.p., dose SGH-35 200 mg/kg (0.78 mmol/kg), SGH-40 100 mg/kg (0.38 mmol/kg), 4 animals; for ED50: Mus musculus, ip, MES, median effective dose, log-probit method; for PI: Protective index = TD50/ED50, MES ED50
Experimental: as §2
The maximal electroshock (MES) seizure is one of the electrical test used to evaluate anticonvulsant activity (White, H.S. et al. In Antiepileptic Drugs, 4th ed.; Levy, R.H. et al., Eds, Raven New York, 1995, pp 99-121). […] Swiss albino mice (25 g body weight) were injected with 25, 50, 100 and 200 mg/kg of SGH-35 and SGH-40 i.p. 30 min later, mice were restrained by hand and subjected to electric shock through their ears, and released immediately following electrical stimulation, to permit observation of the maximal seizure. The maximal seizure typically consists of a short period of initial tonic flexioni and a prolonged period of tonic extension (especially the hind limb). Protection was defined as complete absence of hind limb tonic extension (Table 1).
as §3

Swiss albino mice [3] = experiment: animal or person; format: in vivo; settings: for ED50: Mus musculus, ip; for % Protection: Picrotoxin (8 mg/kg, IP) given 30 min after compound i.p., dose SGH-35 200 mg/kg (0.78 mmol/kg), SGH-40 100 mg/kg (0.38 mmol/kg), 4 animals; for PI: Protective index = TD50/ED50, Pic ED50
Experimental: as §1, §2
Swiss albino mice (25 g body weight) were injected with 25, 50, 100 and 200 mg/kg of SGH-35 and SGH-40 (4 mice, i.p.). 30 min later, animals were injected sc with Pic (10 mg/kg) and observed for 30 min and the percentage protection against convulsive seizures for each compound was calculated (Table I).
as §3

[4] = Minimal neurotoxicity (chimney test), motor performance; format: in vivo, mice; settings: Swiss albino, mouse, in vivo, ip; median sedative dose; chimney test at 15 and 25 min after i.p. administration
Experimental: as §2
(§4) The effect of SGH-35 and SGH-40 on motor performance was studied by chimney test (Dauge, V. et al. Neuropsychopharmacology 2001, 25, 690-98). At 15 and 25 min after i.p. administration of compounds SGH-35 and SGH-40, the inability of mice to climb up backwards in a glass tube of 25 cm length and 3 cm inner diameter within 30 sec was recorded and taken as a measure of neurological deficits. Normal mice climb up in 5-10 sec. The dose that impaired the motor coordination in 50% of the animals tested was labeled as the median toxin dose 50 (TD50).

Swiss albino mice [5] = experiment: as above; format: in vivo; settings: median sedative dose; chimney test at 15 and 25 min after i.p. administration
Experimental: as §2, §4

[6] = Acute toxicity determination (LD50); format: in vivo; settings: Albino Swiss, mouse, in vivo, ip, mice observed for 72 hours
Experimental: (§5) The acute toxicity determination (LD50) for compounds of formula 1 was performed. Compounds were given intraperitoneally (i.p.) in doses ranging from 0.1-5 mmol/kg. […] All behavioral changes and death during the observation periods were recorded. The percentage of death at each dose level was then calculated, and the LD50 values were obtained (Ghosh, M., Fundamentals of Experimental Pharmacology, Scientific Book Agency, Calcutta. 1984, pp 153-158, 187-189). The protective index (PI) and therapeutic index (TI) of each compound were calculated.
(§6) Initially the approximate LD100 of each test compound was determined. Albino Swiss mice (25 g body weight) were then divided into 4 groups (6 mice each). Each group was then injected with one of 4 selected doses the highest being the LD100 dose. The animals were then observed closely for 4 hours and then occasionally for 72 hours. The percentage of death in each group was then calculated. The LD50 doses were then calculated using the Profit method (Ghosh; M., Fundamentals of Experimental Pharmacology, Scientific Book Agency, Calcutta. 1984, pp 153-158, 187-189).
(§7) The protective index (PI) - i.e. the value that indicates the margin of safety and tolerance of the test compound was calculated by the formula: Protective index (PI) = TD50/ED50. The Therapeutic Index was calculated by the formula: Therepeutic index (TI) = LD50/ED50 (Löscher, W. et al. Epilepsy Res. 1991, 9, 1-10).

Albino Swiss mice = experiment: Acute toxicity determination (LD50); format: in vivo; settings: Therapeutic index = LD50/ED50 (values match the PTZ ED50)
Experimental: as §5, §6, §7

| SMILES | ED50 (Swiss albino mice [1]) | % Protection (Swiss albino mice [1]) | PI (Swiss albino mice [1]) | % Protection (Swiss albino mice [2]) | ED50 (Swiss albino mice [2]) | PI (Swiss albino mice [2]) | ED50 (Swiss albino mice [3]) | % Protection (Swiss albino mice [3]) | PI (Swiss albino mice [3]) | TD50 [4] | TD50 (Swiss albino mice [5]) | LD50 at 72 h [6] | TI (Albino Swiss mice) |
| --- | --- | --- | --- | --- | --- | --- | --- | --- | --- | --- | --- | --- | --- |
| CCOC(=O)C1=C(C)N2CCCC(=O)N=C2S1 [SGH-35, Ethyl 3-methyl-8-oxo-5,6,7,8-tetrahydro-thiarolo[3,2-a][1,3]diazepinie-2-carboxylate] | 127 ± 9.3 mg/kg | 100% | 1.57 | 100% | 90 ± 5.7 mg/kg | 2.22 | 148 ± 11.1 mg/kg | 100% | 1.35 | 200 ± 12.3 mg/kg | 200 ± 12.3 mg/kg | 670 mg/kg | 5.28 |
| CC1=C(Br)SC2=NC(=O)CCCN21 [SGH-40, 2-Bromo-3-methyl-6,7-dihydro-thiazolo[3,2-a][1,3]diazepin-8(5H)-one] | 112 ± 3.9 mg/kg | 100% | 1.51 | 100% | 78 ± 4.1 mg/kg | 2.17 | 129 ± 6.1 mg/kg | 100% | 1.31 | 170 ± 6.9 mg/kg | 170 ± 6.9 mg/kg | 640 mg/kg | 5.71 |
